Values of other authors, collected in US20220401207A1, “DEVICES, SYSTEMS, AND METHODS FOR TREATMENT OF DUCT OCCLUSION” (Purdue Research Foundation, priority 2021, published 2022).

How the values were obtained:
[1] = test system: bacteria isolated from bile; conditions: number of bile cultures, N-acetyl-cysteine n = 12, co-trimoxazole n = 10
[2] = test system: cancerous mass; conditions: drug-eluting stent, drug comprises gemcitabine
[3] = test system: gall bladder; conditions: opossums, CCK infused into the body

Row | Molecule | Bile samples cultured with Clostridium species [1] | Bile samples cultured with Enterobacter species [1] | Bile samples cultured with Enterococcus species [1] | Bile samples cultured with K. oxytoca [1] | Bile samples cultured with K. pneumonia [1] | Bile samples cultured with Klebsiella species [1] | further results
1 | CC(=O)N[C@@H](CS)C(=O)O [N-acetyl-cysteine] | 5 | 6 | 10 | 5 | 3 | 8 | Bile samples cultured with Citrobacter freundii [1]: 1; Bile samples cultured with Proteus species [1]: 1; Bile samples cultured with Escherichia coli ([1]; **p < 0.05): 6; Bile samples cultured with Streptococcus species ([1]; **p < 0.05): 4
2 | Nc1ccn([C@@H]2O[C@H](CO)[C@@H](O)C2(F)F)c(=O)n1 [gemcitabine] |  |  |  |  |  |  | Life span of subjects [2]: increased life spans; Tumor size [2]: decreased tumor size
3 | Co-trimoxazole | 2 | 2 | 6 | 1 | 4 | 5 | Bile samples cultured with Bacteroides fragilis [1]: 1; Bile samples cultured with Candida species [1]: 2; Bile samples cultured with Pseudomonas aeruginosa [1]: 1; Bile samples cultured with Staphylococcus epidermidis [1]: 1
4 | cholecystokinin [CCK] |  |  |  |  |  |  | Compliance (and thus the pressure) of the gall bladder [3]: drops
